Like-named read-outs stand apart in the source and are kept apart here.
How the values were obtained:
[1] = test system: Asexual parasites of P. falciparum strain 3D7; test: In vitro drug activity on asexual parasites (SYBR Green assay); type: cell-based, Plasmodium falciparum
Description: Cell culture. Asexual parasites of P. falciparum strain 3D7 were cultured as described previously [Trager W, et al., Journal of Parasitology 2005, 91: 484-486], Stage III-V gametocytes were selected and enriched with 3-day treatment with 50 mM N-acetylglucosamine (NAG) and the following Percoll density gradient centrifugation after gametocyte production [Tanaka T Q, et al., Molecular and Biochemical Parasitology, 2011, 111: 160-163], Gametocytes of HB3 and Dd2 strains were produced and then set up for assay in a similar process. HepG2 cells (ATCC, cat. no. 77400) were cultured in 175-cm^2 tissue culture flasks with 30 ml growth medium at 37° C. in a 5% CO2 humidified atmosphere. Growth medium was made with Dulbecco's Modified Eagle Medium with 10% fetal bovine serum (FBS). Growth medium was replaced every other day and cells were passed at 75% confluence.
Asexual parasites of P. falciparum strain 3D7 were cultured as described previously (Trager, W. et al., J. Parasitol. 2005, 91(3): 484-486). Drug activity on asexual stage parasites was tested using a SYBR Green assay as described previously (Eastman, R. T. et al., Antimicrob. Agents Chemother. 2013, 57(1): 425-435; Smilkstein, M. et al., Antimicrob. Agents Chemother. 2004, 48(5): 1803-1806). Briefly, parasites were diluted to 0.5% parasitemia in complete culture medium with 2% hematocrit and drugs diluted in DMSO (≤0.5%) and were loaded into a 96-well plate (200 μl/well). No drug and RBC alone wells were included as positive and background controls, respectively, and each testing condition was examined in duplicated. After 72 h incubation under the standard culture condition and a freeze-thaw lysis step at −80° C. and room temperature, 100 μl/well of lysis buffer containing SYBR Green I was added to the parasite culture and incubated for 30 min at room temperature. The fluorescence of each well was measured at 520 nm following excitation at 490 nm using a FLUOstar Optima™ microplate reader (BMG Labtech).

Solubility at pH 7.4 = type: physicochemical
mTOR = mTOR (Homo sapiens, UniProt P42345); test: mTOR activity (no method described); type: biochemical
[2] = Microsomal stability (rat); type: in vitro ADME; conditions: rat microsomes
[3] = P. falciparum 3D7 asexual parasites, 72 h, SYBR Green

Row | Structure (SMILES) | EC50 [1] | Sol @ pH 7.4 (Solubility at pH 7.4) | mTOR (mTOR) | Microsomal Stability (rat) T1/2 [2] | EC50 [1, 3]
1 | O=C(NCCN1CCNCC1)c1ccc(-n2c(=O)ccc3cnc4ccc(-c5ccc(Cl)cc5)cc4c32)cc1 [Compound 98] | 19.3 nM | 0 ug/mL | 0.994 µM | >30 min | 
2 | O=C(c1ccc(-n2c(=O)ccc3c(Cl)nc4ccc(-c5ccc(Cl)cc5)cc4c32)cc1)N1CCOCC1 [Compound 210] | 14500 nM | <1 ug/mL | 100 µM | 2.7 min | 
3 | COc1cc(C(=O)NCCCN2CCS(=O)(=O)CC2)ccc1-n1c(=O)ccc2cnc3ccc(-c4ccc(Cl)cc4)cc3c21 [Compound 226] | 208 nM |  | 8.446 µM |  | 
4 | COc1cc(C(=O)NCCCN(CCO)CCO)ccc1-n1c(=O)ccc2cnc3ccc(-c4ccc(Cl)cc4)cc3c21 [Compound 227] | 66.5 nM |  | 16 µM |  | 
5 | CCN(CC)CCCNC(=O)c1ccc(-n2c(=O)ccc3cnc4ccc(-c5ccc(Cl)cc5)cc4c32)c(OC)c1 [Compound 228] | 195 nM |  | 11.22 µM |  | 
6 | COc1cc(C(=O)NCCCN2CCCCC2)ccc1-n1c(=O)ccc2cnc3ccc(-c4ccc(Cl)cc4)cc3c21 [Compound 229] | 232 nM |  | 19.25 µM |  | 
7 | COc1cc(C(=O)NCCCN(C)C)ccc1-n1c(=O)ccc2cnc3ccc(-c4ccc(Cl)cc4)cc3c21 [Compound 230] | 98.2 nM |  | 50 µM |  | 
8 | COc1cc(C(=O)NCCN2CCCC2)ccc1-n1c(=O)ccc2cnc3ccc(-c4ccc(Cl)cc4)cc3c21 [Compound 248] | 329 nM | 51.2 ug/mL | 23.38 µM | 10.6 min | 
9 | COc1cc(C(=O)NCCN2CCN(C)CC2)ccc1-n1c(=O)ccc2cnc3ccc(-c4ccc(Cl)cc4)cc3c21 [Compound 252] |  |  | 100 µM |  | 
10 | CN(C)CCCNC(=O)c1ccc(-n2c(=O)ccc3cnc4ccc(-c5ccc(Cl)cc5)cc4c32)cc1 [Compound 258] | 34.3 nM | 0 ug/mL | 2.541 µM | 24.4 min | 
11 | O=C(NCCCN(CCO)CCO)c1ccc(-n2c(=O)ccc3cnc4ccc(-c5ccc(Cl)cc5)cc4c32)cc1 [Compound 259] | 24.2 nM | 0 ug/mL | 0.6559 µM | 2.6 min | 
12 | O=C(NCCCN1CCCCC1)c1ccc(-n2c(=O)ccc3cnc4ccc(-c5ccc(Cl)cc5)cc4c32)cc1 [Compound 260] | 62.4 nM | 0 ug/mL | 5.024 µM | 2.1 min | 
13 | O=C(NCCCN1CCS(=O)(=O)CC1)c1ccc(-n2c(=O)ccc3cnc4ccc(-c5ccc(Cl)cc5)cc4c32)cc1 [Compound 261] | 60 nM | 0 ug/mL | 1.871 µM | 1.7 min | 
14 | CN(C)CCN(C)C(=O)c1ccc(-n2c(=O)ccc3cnc4ccc(-c5ccc(Cl)cc5)cc4c32)cc1 [Compound 299] | 55.3 nM |  | 5.83 µM |  | 
15 | CCN(CCN(C)C)C(=O)c1ccc(-n2c(=O)ccc3cnc4ccc(-c5ccc(Cl)cc5)cc4c32)cc1 [Compound 300] | 32.7 nM |  | 3.792 µM |  | 
16 | N#CC1(NC(=O)c2ccc(-n3c(=O)ccc4cnc5ccc(-c6ccc(Cl)cc6)cc5c43)cc2)CC1 [Compound 304] | 19.2 nM |  | 0.8535 µM |  | 
17 | CCC(=O)N(CC)CCNC(=O)c1ccc(-n2c(=O)ccc3cnc4ccc(-c5ccc(Cl)cc5)cc4c32)cc1 [Compound 305] | 483 nM |  | 4.727 µM |  | 
18 | O=C(NCCC1CCN(C2COC2)CC1)c1ccc(-n2c(=O)ccc3cnc4ccc(-c5ccc(Cl)cc5)cc4c32)cc1 [Compound 306] | 100 nM |  | 8.864 µM |  | 
19 | CN1CCN(Cc2ccc(-c3ccc4ncc5ccc(=O)n(-c6ccc(C(=O)NC7CC7)cc6)c5c4c3)cc2)CC1 [Compound 307] | 191 nM |  | 39.9 µM |  | 
20 | O=C(NC1CC1)c1ccc(-n2c(=O)ccc3cnc4ccc(-c5ccc(Cl)c(F)c5)cc4c32)cc1 [Compound 308] | 23.6 nM |  | 2.099 µM |  | 
21 | O=C(NCCN1CCCC1=O)c1ccc(-n2c(=O)ccc3cnc4ccc(-c5ccc(Cl)cc5)cc4c32)cc1 [Compound 309] | 554 nM |  | 3.824 µM |  | 
22 | CCC(=O)N(C)CCNC(=O)c1ccc(-n2c(=O)ccc3cnc4ccc(-c5ccc(Cl)cc5)cc4c32)cc1 [Compound 310] | 414 nM |  | 3.373 µM |  | 
23 | CC(C)(O)CNC(=O)c1ccc(-n2c(=O)ccc3cnc4ccc(-c5ccc(Cl)cc5)cc4c32)cc1 [Compound 311] | 53.3 nM |  | 0.1982 µM |  | 

Row | Structure (SMILES) | EC50 [1] | Sol @ pH 7.4 (Solubility at pH 7.4) | mTOR (mTOR) | Microsomal Stability (rat) T1/2 [2] | EC50 [1, 3]
24 | N#Cc1cc(-n2c(=O)ccc3cnc4ccc(-c5ccc(Cl)cc5)cc4c32)ccc1C(=O)NC1CC1 [Compound 312] | 1850 nM |  | 500 µM |  | 
25 | Cc1cc(C(=O)NCCN2CCNCC2)ccc1-n1c(=O)ccc2cnc3ccc(-c4ccc(Cl)cc4)cc3c21 [Compound 313] | 39 nM |  | 1.429 µM |  | 
26 | Nc1nc2ccc(-c3ccc(Cl)cc3)cc2c2c1ccc(=O)n2-c1ccc(C(=O)N2CCOCC2)cc1 [Compound 314] | 429 nM |  | 0.78 µM |  | 
27 | O=C(NC1CC1)c1ccc(-n2c(=O)ccc3cnc4ccc(-c5ccc(Cl)cc5)cc4c32)cn1 [Compound 315] | 137 nM |  | 100 µM |  | 
28 | COc1cc(C(=O)NCCN(C)C)ccc1-n1c(=O)ccc2cnc3ccc(-c4ccc(F)c(O)c4)cc3c21 [Compound 316] | 412 nM |  | 8.154 µM |  | 
29 | COc1cc(C(=O)NCCN(C)C)ccc1-n1c(=O)ccc2cnc3ccc(-c4ccc(Cl)cc4)cc3c21 [Compound 317] | 202 nM |  | 8.572 µM |  | 
30 | NC1(c2ccc(-c3ccc4ncc5ccc(=O)n(-c6ccc7c(c6)CNS7(=O)=O)c5c4c3)cc2)CC1 [Compound 383] |  |  |  |  | 62.3 nM
31 | O=C1c2ccc(-n3c(=O)ccc4cnc5ccc(-c6ccc(Cl)cc6)cc5c43)cc2C(=O)N1C1CC1 [Compound 384] |  |  |  |  | 1320 nM
32 | Cn1c(=O)n(-c2ccc(N3CCNCC3)c(C#N)c2)c2c3cc(-c4cccc(C#N)c4)ccc3ncc21 [Compound 418] | 7.93 nM |  | 0.7002 µM |  | 
33 | Cc1ccc(C#N)cc1-n1c(=O)n(C)c2cnc3ccc(-c4ccc[nH]4)cc3c21 [Compound 419] | 82.9 nM |  | 30.38 µM |  | 
34 | Cc1ccc(C#N)cc1-n1c(=O)n(C)c2cnc3ccc(-c4cccn4C)cc3c21 [Compound 420] | 144 nM |  | 30.22 µM |  | 
35 | Cc1cc(N2CCNCC2)c(C#N)cc1-n1c(=O)n(C)c2cnc3ccc(-c4cccs4)cc3c21 [Compound 421] | 18.9 nM |  | 18.94 µM |  | 
36 | CC(=O)N1CCN(c2cc(C)c(-n3c(=O)n(C)c4cnc5ccc(-c6ccc(F)cc6)cc5c43)cc2C#N)CC1 [Compound 422] | 5.87 nM |  | 1.87 µM |  | 
37 | CC(=O)N1CCN(c2cc(C)c(-n3c(=O)n(C)c4cnc5ccc(-c6cccc(C#N)c6)cc5c43)cc2C#N)CC1 [Compound 423] | 50.4 nM |  | 15.4 µM |  | 
38 | Cc1ccc(C#N)cc1-n1c(=O)n(C)c2cnc3ccc(-c4ccsc4)cc3c21 [Compound 424] | 23 nM |  | 12.51 µM |  | 
39 | Cc1ccc(C#N)cc1-n1c(=O)n(C)c2cnc3ccc(-c4ccoc4)cc3c21 [Compound 425] | 48.4 nM |  | 5 µM |  | 
40 | Cc1cc(N2CC(N)C2)c(C#N)cc1-n1c(=O)n(C)c2cnc3ccc(-c4cccc(C#N)c4)cc3c21 [Compound 426] | 29.4 nM |  | 6.418 µM |  | 
41 | Cc1cc(N2CCNCC2)c(C#N)cc1-n1c(=O)n(C)c2cnc3ccc(-c4ccc(F)c(C#N)c4)cc3c21 [Compound 427] | 75.2 nM |  | 30.6 µM |  | 
42 | Cc1cc(N2CC(N)C2)c(C#N)cc1-n1c(=O)n(C)c2cnc3ccc(-c4ccc(F)cc4)cc3c21 [Compound 428] | 27.8 nM |  | 11 µM |  | 
43 | CC(=O)N1CCN(c2cc(C)c(-n3c(=O)n(C)c4cnc5ccc(-c6ccc(Cl)cc6)cc5c43)cc2C#N)CC1 [Compound 429] | 10.5 nM |  | 12.57 µM |  | 
44 | Cc1cc(NCCN(C)C)c(C#N)cc1-n1c(=O)n(C)c2cnc3ccc(-c4cccc(C#N)c4)cc3c21 [Compound 430] | 58.5 nM |  | 4.622 µM |  | 
45 | Cc1ccc(C#N)cc1-n1c(=O)n(C)c2cnc3ccc(-c4cccc(S(N)(=O)=O)c4)cc3c21 [Compound 433] | 17.1 nM |  | 6.1 µM |  | 
